The values that follow come from US20230248845A1, “COMBINATION OF AN ANTIBODY-DRUG CONJUGATE AND AN ANTIBODY-SAPONIN CONJUGATE” (SAPREME TECHNOLOGIES B.V., priority 2020, published 2023).

Assay in all cases: Cell viability assay (MTS), targeted protein toxin mediated cell killing
Holding throughout (format): cell-based, human

One assay concerns A431 cells (EGFR^++). On the procedure:
(§1) After treatment the cells were incubated for 72 hr at 37° C. before the cell viability was determined by a MTS-assay, performed according to the manufacturer's instruction (CellTiter 96® AQueous One Solution Cell Proliferation Assay, Promega). Briefly, the MTS solution was diluted 20× in DMEM without phenol red (PAN-Biotech GmbH) supplemented with 10% FBS. The cells were washed once with 200 μL/PBS well, after which 100 μL diluted MTS solution was added/well. The plate was incubated for approximately 20-30 minutes at 37° C. Subsequently, the OD at 492 nm was measured on a Thermo Scientific Multiskan FC plate reader (Thermo Scientific). For quantification the background signal of ‘medium only’ wells was subtracted from all other wells, before the cell viability percentage of treated/untreated cells was calculated, by dividing the background corrected signal of treated wells over the background corrected signal of the untreated wells (×100).

The subject of the next assay is SK-BR-3 cells (HER2^++). The method, then: as §1
Assay [1] deals with MDA-MB-468 cells (HER2^−). The conditions noted are these: FIG. 9B. On the procedure: as §1
Another assay deals with A2058 cells (EGFR^−). As to conditions: FIG. 8B. On the procedure: as §1
The mark [2] stands for this setting: SO1861 titrated on 10 pM CD71mab-saporin.
The mark [3] stands for this setting: SO1861 titrated on 10 pM Pertuzumab-saporin.
Where [4] appears, read: SO1861 titrated on 10 pM cetuximab-saporin.
Setting [5] is: SO1861 titrated on 10 pM matuzumab-dianthin.
Setting [6] is: SO1861 titrated on 50 pM Pertuzumab-saporin.
[7] abbreviates: SO1861 titrated on 50 pM trastuzumab-saporin.
[8] abbreviates: substance alone, equivalent concentrations, FIG. 2A.

Where two headings read alike, the source gives them in different places.

In general, IC50 refers to the concentration that gives 50% inhibition. Regarding “matuzumab-SO1861: SO1861-EMCH conjugated via cysteine residues (Cys) to matuzumab, with a DAR 3,3”, the IC50 with A431 cells (EGFR^++) (substance titrated on fixed 10 pM EGFdianthin, FIG. 6A, read-out: IC50 cell killing) worked out at 0.002 µM; with A431 cells (EGFR^++) (substance titrated on fixed 10 pM cetuximab-saporin, FIG. 6A, read-out: IC50 cell killing) it was 0.002 µM.

For the compound `CC(=O)O[C@H]1[C@H](O[C@@H]2OC[C@@H](O)[C@H](O)[C@H]2O)[C@@H](O)[C@H](O[C@@H]2[C@H](O)[C@@H](O[C@@H]3O[C@@H](C)[C@H](O[C@@H]4OC[C@@H](O)[C@H](O[C@@H]5O[C@H](CO)[C@@H](O)[C@H](O)[C@H]5O)[C@H]4O)[C@@H](O)[C@H]3O)[C@H](OC(=O)[C@]34CCC(C)(C)C[C@H]3C3=CC[C@@H]5[C@@]6(C)CC[C@H](O[C@@H]7O[C@H](C(=O)O)[C@@H](O)[C@H](O[C@@H]8OC[C@@H](O)[C@H](O)[C@H]8O)[C@H]7O[C@@H]7O[C@H](CO)[C@H](O)[C@H](O)[C@H]7O)[C@@](C)(C=O)[C@@H]6CC[C@@]5(C)[C@]3(C)C[C@H]4O)O[C@@H]2C)O[C@@H]1C` [SO1861], the IC50 with SK-BR-3 cells (HER2^++) (SO1861 titrated on 10 pM CD71-saporin, FIG. 9A, read-out: SO1861 IC50 cell killing) is 0.2 µM; in the assay on SK-BR-3 cells (HER2^++) (SO1861 titrated on 10 pM Pertuzumab-saporin, FIG. 9A, read-out: SO1861 IC50 cell killing), 0.2 µM; with SK-BR-3 cells (HER2^++) (SO1861 titrated on 10 pM cetuximab-saporin, FIG. 9A, read-out: SO1861 IC50 cell killing) it was 0.2 µM; with SK-BR-3 cells (HER2^++) (SO1861 titrated on 10 pM matuzumab-dianthin, FIG. 9A, read-out: SO1861 IC50 cell killing) it was 0.2 µM; with SK-BR-3 cells (HER2^++) (SO1861 titrated on 50 pM Pertuzumab-saporin, FIG. 9A, read-out: SO1861 IC50 cell killing) it was 0.2 µM; in the assay with SK-BR-3 cells (HER2^++) (SO1861 titrated on 50 pM trastuzumab-saporin, FIG. 9A, read-out: SO1861 IC50 cell killing), 0.2 µM. Further, the concentration for half-maximal inhibition (IC50) was 0.2 µM in assay [1] (setting [2]); greater than 1 µM in assay [1] (setting [3]); 0.2 µM in assay [1] (setting [4]); 0.2 µM in assay [1] (setting [5]); greater than 1 µM in assay [1] (setting [6]); greater than 1 µM in assay [1] (setting [7]). The IC50 in the assay with A431 cells (EGFR^++) (SO1861 titrated on 10 pM CD71-saporin, FIG. 8A, read-out: SO1861 IC50 cell killing) is 0.2 µM; with A431 cells (EGFR^++) (SO1861 titrated on 10 pM cetuximab-saporin, FIG. 8A, read-out: SO1861 IC50 cell killing) it was 0.2 µM; in the assay with A431 cells (EGFR^++) (SO1861 titrated on 10 pM matuzumab-dianthin, FIG. 8A, read-out: SO1861 IC50 cell killing), 0.2 µM; in the assay with A431 cells (EGFR^++) (SO1861 titrated on 10 pM pertuzumab-saporin, FIG. 8A, read-out: SO1861 IC50 cell killing) it was 0.3 µM; with A431 cells (EGFR^++) (SO1861 titrated on 50 pM pertuzumab-saporin, FIG. 8A, read-out: SO1861 IC50 cell killing), 0.2 µM; in the assay with A431 cells (EGFR^++) (SO1861 titrated on 50 pM trastuzumab, FIG. 8A, read-out: SO1861 IC50 cell killing) it was 0.25 µM. In addition, the IC50 in the assay on A2058 cells (EGFR^−) (setting [2]), in the assay with A2058 cells (EGFR^−) (setting [3]), in the assay with A2058 cells (EGFR^−) (setting [6]) and with A2058 cells (EGFR^−) (setting [7]) was 0.2 µM each time. Besides, the cell killing activity entry in the assay with A2058 cells (EGFR^−) (setting [4]) and in the assay on A2058 cells (EGFR^−) (setting [5]) was “not active” throughout.

Take “pertuzumab-(Cys-L-SO1861)^4: SO1861-EMCH conjugated via cysteine residues (Cys) to pertuzumab, with a DAR 4”: the cell killing activity result with SK-BR-3 cells (HER2^++) (setting [8]) was “could not induce any cell killing activity”. Further, in the assay on SK-BR-3 cells (HER2^++) (substance titrated on fixed 50 pM trastuzumab-saporin, FIG. 2A, read-out: IC50 cell killing), the IC50 stood at 0.0005 µM. Further, in the assay with SK-BR-3 cells (HER2^++) (titrated on fixed 50 pM pertuzumab-dianthin, higher concentrations), the “cell killing activity at higher concentrations” value is listed as “cell killing activity was reduced”.

Consider “pertuzumab: monoclonal antibody binding human HER2”, for which the cell killing activity result is “could not induce any cell killing activity” with SK-BR-3 cells (HER2^++) (equivalent concentrations + 50 pM trastuzumab-saporin, FIG. 2A) and “could not induce any cell killing activity” with SK-BR-3 cells (HER2^++) (setting [8]).
